In ChEMBL document CHEMBL1201862, “PubChem BioAssay data set” (2004):
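A five-concentration, 48-hour dose response in 96-well plates underlies each endpoint, interpolated linearly between surrounding concentrations. GI50 marks 50% less growth.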 The source made the active and inactive calls. Cut-off read from the data, not from the text of the source: active = GI50 up to about 1.1 µM and inactive = higher.

Tests used:
Assay in all cases: NCI anticancer screen, dose series, 48 h
A549 = test system: A549
BT-549 = test system: BT-549
CAKI-1 = test system: CAKI-1
CCRF-CEM = test system: CCRF-CEM
COLO 205 = test system: COLO 205
HCC 2998 = test system: HCC 2998
HCT-15 = test system: HCT-15
HOP-62 = test system: HOP-62
HOP-92 = test system: HOP-92
LOX IMVI = test system: LOX IMVI
MCF7 = test system: MCF7
NCI-H23 = test system: NCI-H23
NCI/ADR-RES = test system: NCI/ADR-RES
OVCAR-8 = test system: OVCAR-8
RPMI-8226 = test system: RPMI-8226
SF-539 = test system: SF-539
SNB-19 = test system: SNB-19
SR = test system: SR
UACC-257 = test system: UACC-257
UO-31 = test system: UO-31

Compound | GI50 (A549) | GI50 (BT-549) | GI50 (CAKI-1) | GI50 (CCRF-CEM) | GI50 (COLO 205) | GI50 (HCC 2998) | GI50 (HCT-15) [µM] | GI50 (HOP-62) | GI50 (HOP-92) | GI50 (LOX IMVI) | GI50 (MCF7) | GI50 (NCI-H23) | GI50 (NCI/ADR-RES) | GI50 (OVCAR-8) | GI50 (RPMI-8226) | GI50 (SF-539) | GI50 (SNB-19) | GI50 (SR) | GI50 (UACC-257) | GI50 (UO-31)
CNC1C(O)C(OC2C(N)CC(N)C(OC3OC(CN)=CCC3N)C2O)OCC1(C)O (stereo not given) | > 100 µM (inactive) | > 100 µM (inactive) | > 100 µM (inactive) | > 100 µM (inactive) | > 100 µM (inactive) | > 100 µM (inactive) | > 100 | > 100 µM (inactive) | > 100 µM (inactive) | > 100 µM (inactive) | > 100 µM (inactive) | > 100 µM (inactive) | > 100 µM (inactive) | > 100 µM (inactive) | > 100 µM (inactive) | > 100 µM (inactive) | > 100 µM (inactive) | > 100 µM (inactive) | > 100 µM (inactive) | > 100 µM (inactive)
Cc1sc2nc(N(C)C)oc(=O)c2c1C | 85.9 µM (inactive) | 15.8 µM (inactive) | 76.9 µM (inactive) | 94.6 µM (inactive) | > 100 µM (inactive) | > 100 µM (inactive) | 82.6 | 51.5 µM (inactive) | > 100 µM (inactive) | > 100 µM (inactive) | > 100 µM (inactive) | > 100 µM (inactive) | 70 µM (inactive) | 73.5 µM (inactive) | 41.3 µM (inactive) | > 100 µM (inactive) | > 100 µM (inactive) | 40.8 µM (inactive) | > 100 µM (inactive) | 21.6 µM (inactive)
C=C=C(CC1CCCCC1=O)S(=O)(=O)c1ccccc1 (stereo not given) | > 10 µM (inactive) | > 10 µM (inactive) | > 10 µM (inactive) | 2.16 µM (inactive) | > 10 µM (inactive) | > 8.71 µM (inactive) | 4.52 | > 10 µM (inactive) | > 10 µM (inactive) | > 4.78 µM (inactive) | 3.23 µM (inactive) | 5.13 µM (inactive) | > 10 µM (inactive) | > 9.46 µM (inactive) | 1.04 µM (active) | > 10 µM (inactive) | > 10 µM (inactive) | 2.41 µM (inactive) | > 10 µM (inactive) | > 10 µM (inactive)
OCc1ccc2c(c1)CC1(C2)Cc2cc3c(cc2C1O)CCC3 (stereo not given) | 6.43 µM (inactive) | 2.86 µM (inactive) | 5.25 µM (inactive) | 4.01 µM (inactive) | 3.17 µM (inactive) | 6.55 µM (inactive) | 3.36 | 4.49 µM (inactive) | 12.2 µM (inactive) | 5.18 µM (inactive) | 3.66 µM (inactive) | 5.35 µM (inactive) | 2.58 µM (inactive) | 5.74 µM (inactive) | 3.18 µM (inactive) | 3.5 µM (inactive) | 4.97 µM (inactive) | 2.33 µM (inactive) | 2.3 µM (inactive) | 5.9 µM (inactive)
Cc1cc(N)ccc1/N=N\c1ccc(S(=O)(=O)CCOS(=O)(=O)O)cc1 | 3.78 µM (inactive) | 1.53 µM (inactive) | 1.88 µM (inactive) | 0.382 µM (active) | 2.07 µM (inactive) | 2.01 µM (inactive) | 0.346 | 6.1 µM (inactive) | 5.02 µM (inactive) | 0.343 µM (active) | 0.614 µM (active) | 0.7 µM (active) | 0.41 µM (active) | 0.356 µM (active) | 1 µM (active) | 2.46 µM (inactive) | 4.72 µM (inactive) | 0.488 µM (active) | 11.1 µM (inactive) | 2 µM (inactive)
O=C(O)C(O)C(O)C(O)C(O)CO.[Ba+2] (stereo not given) | > 100 µM (inactive) | > 100 µM (inactive) | > 100 µM (inactive) | > 100 µM (inactive) | > 100 µM (inactive) | > 100 µM (inactive) | > 100 | > 100 µM (inactive) | > 100 µM (inactive) | > 100 µM (inactive) | > 100 µM (inactive) | > 100 µM (inactive) | > 100 µM (inactive) | > 100 µM (inactive) | > 100 µM (inactive) | > 100 µM (inactive) | > 100 µM (inactive) | > 100 µM (inactive) | > 100 µM (inactive) | > 100 µM (inactive)
CCNC(=O)OCC1C2=C(C(=O)C(C)=C(N)C2=O)N2CC3C(N3C)C12OC (stereo not given) | 5.11 µM (inactive) | 11.5 µM (inactive) | 3.95 µM (inactive) | 4.21 µM (inactive) | 27.6 µM (inactive) | 14.6 µM (inactive) | 14.6 | 6.44 µM (inactive) | > 75 µM (inactive) | 13.7 µM (inactive) | 4.95 µM (inactive) | 1.4 µM (inactive) | > 75.5 µM (inactive) | 21.7 µM (inactive) | 14.4 µM (inactive) | 16.6 µM (inactive) | 24 µM (inactive) | 1.48 µM (inactive) | 62.4 µM (inactive) | 19.5 µM (inactive)
CC1(C)OCC2OC3([C@H](O)CCO)OC(C)(C)OC3C2O1 (stereo not given in full) | > 100 µM (inactive) | > 100 µM (inactive) | > 100 µM (inactive) | > 100 µM (inactive) | > 100 µM (inactive) | > 100 µM (inactive) | > 100 | > 100 µM (inactive) | > 100 µM (inactive) | > 100 µM (inactive) | > 100 µM (inactive) | > 100 µM (inactive) | > 100 µM (inactive) | > 100 µM (inactive) | > 100 µM (inactive) | > 100 µM (inactive) | > 100 µM (inactive) | > 100 µM (inactive) | > 100 µM (inactive) | > 100 µM (inactive)
Cn1ccnc1Sc1ccc(/C=N\NC(=O)c2cccc(F)c2)cc1[N+](=O)[O-] | 69.3 µM (inactive) | 40.8 µM (inactive) | > 100 µM (inactive) | > 100 µM (inactive) | > 100 µM (inactive) | > 100 µM (inactive) | 78.7 | 37.3 µM (inactive) | 22.7 µM (inactive) | > 100 µM (inactive) | 27.8 µM (inactive) | 47.2 µM (inactive) | 79.3 µM (inactive) | 21.7 µM (inactive) | > 100 µM (inactive) | 25.9 µM (inactive) | 27.8 µM (inactive) | 33.2 µM (inactive) | > 100 µM (inactive) | > 100 µM (inactive)
CNC(=O)OCc1c2ccncc2c(C)c2c1[nH]c1ccccc12 | 0.251 µM (active) | 0.32 µM (active) | 0.141 µM (active) | 0.0962 µM (active) | 0.443 µM (active) | 0.206 µM (active) | 0.234 | 0.494 µM (active) | 0.695 µM (active) | 0.136 µM (active) | 0.0455 µM (active) | 0.195 µM (active) | 0.24 µM (active) | 0.125 µM (active) | 0.134 µM (active) | 0.207 µM (active) | 0.372 µM (active) | < 0.01 µM (active) | 0.587 µM (active) | 0.231 µM (active)
CCCCN1C(=O)C[C@H]2[C@@H]3CCc4cc(OCCN5CCCC5)ccc4[C@H]3CC[C@]2(C)C1=O | 7.8 µM (inactive) | 13.7 µM (inactive) | 7.96 µM (inactive) | 4.06 µM (inactive) | 1.92 µM (inactive) | 10.3 µM (inactive) | 6 | 4.07 µM (inactive) | 6.08 µM (inactive) | 3.19 µM (inactive) | 5.65 µM (inactive) | 11.4 µM (inactive) | 14.7 µM (inactive) | 15.1 µM (inactive) | 2.96 µM (inactive) | 9.71 µM (inactive) | 12.6 µM (inactive) | 3.79 µM (inactive) | 4.38 µM (inactive) | 4.6 µM (inactive)
CC1(C)CC(=O)C2=C(C1)N(c1ccccc1)C1(O)C=CC(O)=C3C(=O)c4ccccc4C(=O)C321 (stereo not given) | 67.5 µM (inactive) | 26.9 µM (inactive) | 26.2 µM (inactive) | 4.06 µM (inactive) | 33.6 µM (inactive) | 30.2 µM (inactive) | 30.8 | 34.4 µM (inactive) | 24.1 µM (inactive) | 21 µM (inactive) | 27.7 µM (inactive) | 24.6 µM (inactive) | 9.84 µM (inactive) | 37.8 µM (inactive) | 22.3 µM (inactive) | 27.4 µM (inactive) | 21.7 µM (inactive) | 8.57 µM (inactive) | 33.8 µM (inactive) | 19.1 µM (inactive)
Oc1ccc2ccccc2c1/C=N/Cc1c(O)ccc2ccccc12 | 86.7 µM (inactive) | 45.3 µM (inactive) | 87.7 µM (inactive) | 6.25 µM (inactive) | > 100 µM (inactive) | 42.2 µM (inactive) | 29.4 | > 100 µM (inactive) | 26.4 µM (inactive) | 48.1 µM (inactive) | 48.2 µM (inactive) | 42.7 µM (inactive) | 33.8 µM (inactive) | 34.5 µM (inactive) | 12.6 µM (inactive) | 31.6 µM (inactive) | 36.9 µM (inactive) | 27.2 µM (inactive) | 81.5 µM (inactive) | 28.7 µM (inactive)
CC1(C)S[C@@H]2[C@H](NC(=O)[C@H](N)c3ccccc3)C(=O)N2[C@H]1C(=O)O [AMPICILLIN] | > 100 µM (inactive) | > 100 µM (inactive) | > 100 µM (inactive) | > 100 µM (inactive) | > 100 µM (inactive) | > 100 µM (inactive) | > 100 | > 100 µM (inactive) | > 100 µM (inactive) | > 100 µM (inactive) | > 100 µM (inactive) | > 100 µM (inactive) | > 100 µM (inactive) | > 100 µM (inactive) | > 100 µM (inactive) | > 100 µM (inactive) | > 100 µM (inactive) | > 100 µM (inactive) | > 100 µM (inactive) | > 100 µM (inactive)
